# Assay results as given in US10544146B2, “Bicyclic compounds and their use as antibacterial agents and β-lactamase inhibitors” (priority 2011, dated 2020).
# Legend:
# Format in all cases: cell-based
# [1] = tested on: A. baumanii JMI 2659; experiment: MIC, antibacterial and synergistic activity; conditions: substance alone
# Method: (§1) In the Tables 10-12, compounds of the present invention were tested in combination with various antibiotics against metallo β-lactamase producing bacteria.
# [2] = tested on: E. cloacae JMI 36; experiment: MIC, antibacterial and synergistic activity; conditions: substance alone
# Method: as §1
# [3] = tested on: E. coli ATCC 25922; experiment: MIC, antibacterial and synergistic activity
# Method: as §1
# [4] = tested on: E. coli JMI 10767; experiment: MIC, antibacterial and synergistic activity; conditions: substance alone
# Method: as §1
# [5] = tested on: E. coli JMI 2671; experiment: MIC, antibacterial and synergistic activity; conditions: substance alone
# Method: as §1
# [6] = tested on: E. coli JMI 2692; experiment: MIC, antibacterial and synergistic activity; conditions: substance alone
# Method: as §1
# [7] = tested on: K. pneumo JMI 2693; experiment: MIC, antibacterial and synergistic activity; conditions: substance alone
# Method: as §1
# [8] = tested on: K. pneumo JMI 2697; experiment: MIC, antibacterial and synergistic activity; conditions: substance alone
# Method: as §1
# [9] = tested on: K. pneumo JMI 2699; experiment: MIC, antibacterial and synergistic activity; conditions: substance alone
# Method: as §1
# [10] = tested on: P. aerug JMI 149; experiment: MIC, antibacterial and synergistic activity; conditions: substance alone
# Method: as §1
# [11] = tested on: E. coli JMI 4103; experiment: MIC, antibacterial and synergistic activity; conditions: substance alone
# [12] = tested on: E. coli JMI 4080; experiment: MIC, antibacterial and synergistic activity; conditions: substance alone
# [13] = tested on: E. coli JMI 2665; experiment: MIC, antibacterial and synergistic activity; conditions: substance alone
# [14] = tested on: K. pneumo JMI 4109; experiment: MIC, antibacterial and synergistic activity; conditions: substance alone
# [15] = tested on: K. pneumo JMI 2673; experiment: MIC, antibacterial and synergistic activity; conditions: substance alone
# [16] = tested on: K. pneumo JMI 2674; experiment: MIC, antibacterial and synergistic activity; conditions: substance alone
# [17] = tested on: K. pneumo JMI 4088; experiment: MIC, antibacterial and synergistic activity; conditions: substance alone
# [18] = tested on: K. pneumo JMI 2681; experiment: MIC, antibacterial and synergistic activity; conditions: substance alone
# [19] = tested on: P. aerug JMI 2686; experiment: MIC, antibacterial and synergistic activity; conditions: substance alone
# [20] = tested on: E. coli JMI 10768; experiment: MIC, antibacterial and synergistic activity; conditions: substance alone
# [21] = tested on: E. coli JMI 10770; experiment: MIC, antibacterial and synergistic activity; conditions: substance alone
# [22] = tested on: E. coli JMI 11103; experiment: MIC, antibacterial and synergistic activity; conditions: substance alone
# [23] = tested on: metallo β-lactamase producing bacteria; experiment: MIC in combination with various antibiotics against metallo β-lactamase producing bacteria (Tables 10-12); conditions: substance alone
# Method: as §1
smiles,measurement,setting,value
"C[C@@H](O)[C@H]1C(=O)N2C(C(=O)O)=C(S[C@@H]3CN[C@H](C(=O)N(C)C)C3)[C@H](C)[C@H]12 [Meropenem, meropenem]",MIC alone,"[1]; A. baumanii JMI 2659, Ges-14 (Cpase)",64 µg/mL
same,MIC alone,"[1]; A. baumanii JMI 2659, enzyme Ges-14 (Cpase)",64 µg/mL
same,MIC alone,"[2]; E. cloacae JMI 36, P99",≤1 µg/mL
same,MIC alone,"[2]; E. cloacae JMI 36, enzyme P99",≤1 µg/mL
same,MIC alone,"[3]; E. coli ATCC 25922, enzyme Wt; substance alone",0.06 µg/mL
same,MIC alone,[3]; E. coli ATCC 25922; enzyme Wt; substance alone,0.06 µg/mL
same,MIC alone,"[4]; E. coli JMI 10767, Wt",≤1 µg/mL
same,MIC alone,"[4]; E. coli JMI 10767, enzyme Wt",≤1 µg/mL
same,MIC alone,"[5]; E. coli JMI 2671, VIM-19 (Cpase)",64 µg/mL
same,MIC alone,"[5]; E. coli JMI 2671, enzyme VIM-19 (Cpase)",64 µg/mL
same,MIC alone,"[6]; E. coli JMI 2692, NDM-1, TEM-1, CTX-M-15",256 µg/mL
same,MIC alone,"[6]; E. coli JMI 2692, enzyme NDM-1, TEM-1, CTX-M-15",256 µg/mL
same,MIC alone,"[7]; K. pneumo JMI 2693, NDM-1 (Cpase)",8 µg/mL
same,MIC alone,"[7]; K. pneumo JMI 2693, enzyme NDM-1 (Cpase)",8 µg/mL
same,MIC alone,"[8]; K. pneumo JMI 2697, IMP-4 (Cpase)",64 µg/mL
same,MIC alone,"[8]; K. pneumo JMI 2697, enzyme IMP-4 (Cpase)",64 µg/mL
same,MIC alone,"[9]; K. pneumo JMI 2699, VIM-1, CTX-M3",32 µg/mL
same,MIC alone,"[9]; K. pneumo JMI 2699, enzyme VIM-1, CTX-M3",32 µg/mL
same,MIC alone,"[10]; P. aerug JMI 149, Bla+++D+",4 µg/mL
same,MIC alone,"[10]; P. aerug JMI 149, enzyme Bla+++D+",4 µg/mL
same,MIC alone,"[11]; E. coli JMI 4103, KPC-2, Tem-1, CMY-Type",64 µg/mL
same,MIC alone,"[11]; E. coli JMI 4103, enzyme KPC-2, Tem-1, CMY-Type",64 µg/mL
same,MIC alone,"[12]; E. coli JMI 4080, Tem-10",≤1 µg/mL
same,MIC alone,"[12]; E. coli JMI 4080, enzyme Tem-10",≤1 µg/mL
same,MIC alone,"[13]; E. coli JMI 2665, CMY-2 (Plasmid Cpase)",≤1 µg/mL
same,MIC alone,"[13]; E. coli JMI 2665, enzyme CMY-2 (Plasmid Cpase)",≤1 µg/mL
same,MIC alone,"[14]; K. pneumo JMI 4109, SHV-1, SHV-12",≤1 µg/mL
same,MIC alone,"[14]; K. pneumo JMI 4109, enzyme SHV-1, SHV-12",≤1 µg/mL
same,MIC alone,"[15]; K. pneumo JMI 2673, CTX-M14 (ESBL)",≤1 µg/mL
same,MIC alone,"[15]; K. pneumo JMI 2673, enzyme CTX-M14 (ESBL)",≤1 µg/mL
same,MIC alone,"[16]; K. pneumo JMI 2674, CTX-M15 (ESBL)",≤1 µg/mL
same,MIC alone,"[16]; K. pneumo JMI 2674, enzyme CTX-M15 (ESBL)",≤1 µg/mL
same,MIC alone,"[17]; K. pneumo JMI 4088, KPC-3 (Cpase)",512 µg/mL
same,MIC alone,"[17]; K. pneumo JMI 4088, enzyme KPC-3 (Cpase)",512 µg/mL
same,MIC alone,"[18]; K. pneumo JMI 2681, Oxa-48 (Cpase)",64 µg/mL
same,MIC alone,"[18]; K. pneumo JMI 2681, enzyme Oxa-48 (Cpase)",64 µg/mL
same,MIC alone,"[19]; P. aerug JMI 2686, KPC-2 (Cpase)",512 µg/mL
same,MIC alone,"[19]; P. aerug JMI 2686, enzyme KPC-2 (Cpase)",512 µg/mL
same,MIC alone,"[20]; E. coli JMI 10768, CTX-M15 (Weak ESBL)",≤1 µg/mL
same,MIC alone,"[20]; E. coli JMI 10768, enzyme CTX-M15 (Weak ESBL)",≤1 µg/mL
same,MIC alone,"[21]; E. coli JMI 10770, CTX-M15 (Hyper ESBL)",≤1 µg/mL
same,MIC alone,"[21]; E. coli JMI 10770, enzyme CTX-M15 (Hyper ESBL)",≤1 µg/mL
same,MIC alone,"[22]; E. coli JMI 11103, CTX-M15 (Intermediate ESBL)",≤1 µg/mL
same,MIC alone,"[22]; E. coli JMI 11103, enzyme CTX-M15 (Intermediate ESBL)",≤1 µg/mL
same,MIC alone,"[23]; Citrobacter freundii isolate 49469, NDM-1",16 µg/mL
same,MIC alone,"[23]; Enterobacter aerogenes isolate 8397, VIM-1",64 µg/mL
same,MIC alone,"[23]; Enterobacter aerogenes isolate 47683, VIM-12",8 µg/mL
same,MIC alone,"[23]; Enterobacter cloacae isolate 4, VIM-6",2 µg/mL
same,MIC alone,"[23]; Enterobacter cloacae isolate 10, IMP-26",16 µg/mL
same,MIC alone,"[23]; Enterobacter cloacae isolate 25, IMP-4",16 µg/mL
same,MIC alone,"[23]; Enterobacter cloacae isolate 1068, VIM-2",2 µg/mL
same,MIC alone,"[23]; Enterobacter cloacae isolate 1471, VIM-1",2 µg/mL
same,MIC alone,"[23]; Enterobacter cloacae isolate 1874, IMP-21",4 µg/mL
same,MIC alone,"[23]; Enterobacter cloacae isolate 3686, IMP-1",8 µg/mL
same,MIC alone,"[23]; Enterobacter cloacae isolate 53477, NDM-1",32 µg/mL
same,MIC alone,"[23]; Escherichia coli isolate 13, IMP-1",4 µg/mL
same,MIC alone,"[23]; Escherichia coli isolate 17, NDM-1",32 µg/mL
same,MIC alone,"[23]; Escherichia coli isolate 49, NDM-1",8 µg/mL
same,MIC alone,"[23]; Escherichia coli isolate 53749, NDM-1",64 µg/mL
same,MIC alone,"[23]; Klebsiella oxytoca isolate 24825, IMP-26",32 µg/mL
same,MIC alone,"[23]; Klebsiella oxytoca isolate 31141, VIM-23",2 µg/mL
same,MIC alone,"[23]; Klebsiella pneumoniae isolate 16, VIM-5",8 µg/mL
same,MIC alone,"[23]; Klebsiella pneumoniae isolate 38, NDM-1",32 µg/mL
same,MIC alone,"[23]; Providencia stuartii isolate 26582, VIM-1",1 µg/mL
same,MIC alone,"[23]; Serratia marcescens isolate 35, IMP-4",8 µg/mL
same,MIC alone,"[23]; Serratia marcescens isolate 36098, IMP-19",8 µg/mL
